Test results reported in patent US8466193B2, “Selective inhibitors of histone deacetylase” (Pharmacyclics, Inc., priority 2008, dated 2013).

Tests used:
[1] = Pharmacokinetic analysis in male rats, oral gavage; format: in vivo; conditions: CD IGS (Sprague-Dawley derived), rat, plasma, orally at 3 mg/kg, compounds administered in combination
Description: This study, performed in male rats with test compounds (Compound 303 and Compound 316), was designed to provide preliminary information on their pharmacokinetics. The test compounds were administered in combination by oral gavage.
The specifications for rats used on this study are as follows: • Strain: CD® IGS rats (Sprague-Dawley derived) • Source: Charles River Laboratories • Surgical modification for oral dosing: One portal vein cannula and one jugular vein cannula • Body weight range at dosing 350 to 375 g
The rats were acclimatized to laboratory conditions for at least 24 hours before dosing. The evening before dosing, food was withheld from the rats and was returned immediately following the 3-hour blood collection time point. Water was provided ad libitum. The rats were housed individually in translucent polycarbonate cages.
Test compounds were prepared as 3.0 mg/ml solutions (1% MC/0.4% Cr EL in WFI).
Rats were administered a single dose of test compound in combination by oral gavage. Dose volumes were adjusted based on body weight data collected immediately prior to dosing.
The dose volume was 1 ml/kg and the nominal dosage was 3 mg/kg.
Blood samples were collected at 5 minutes, 20 minutes, 1 hour, 3 hours, 6 hours, 9 hours, and 24 hours post-dosing from orally dosed rats. The samples were collected into plasma separator Microtainer tubes with anticoagulant (lithium heparin). Plasma samples were prepared by centrifugation (5 min at 5000×g), and at least 100 μL were transferred to storage tubes and frozen on dry ice. Samples were maintained at approximately −75 C until prepared for analysis.
Plasma samples were thawed and 75 uL aliquots were transferred to centrifuge tubes to which 10 μL aliquots of internal standard solution (0.5 μg/mL) were added. The samples were not diluted with blank plasma prior to further processing. Soluble proteins were precipitated by the addition of 300 μL of methanol, followed by centrifugation (20 min at 16,000×g). The samples were evaporated to dryness and reconstituted in 100 μL of water containing 0.2% formic acid and 10% methanol. All samples were loaded onto an autosampler maintained at 6° C. and evaluated for concentrations of test compound using LC-MS/MS. lasma concentration data were evaluated using the computer program WinNonlin (Professional Edition, Pharsight Corporation, version 5.01). […]
Pan HDAC inhibitor 3-((dimethylamino)methyl)-N-(2-(4-(hydroxycarbamoyl)phenoxy)ethyl)benzofuran-2-carboxamide was added to the cassette to serve as a standard since the pharmacokinetics of this compound have been determined previously in rats. The UC's determined for rats administered Compound 303 and Compound 316 orally at 3 mg/kg were 1.42, and 5.36 μg·h/mL, respectively. […]

[2] = target: T1, HDAC8 (Homo sapiens, UniProt Q9BY41); test: Histone deacetylase activity, continuous trypsin-coupled assay; format: biochemical; conditions: 15 minutes preincubation; substrate acetyl-Gly-Ala-(N-acetyl-Lys)-AMC
T1 sequence (Q9BY41 1-377): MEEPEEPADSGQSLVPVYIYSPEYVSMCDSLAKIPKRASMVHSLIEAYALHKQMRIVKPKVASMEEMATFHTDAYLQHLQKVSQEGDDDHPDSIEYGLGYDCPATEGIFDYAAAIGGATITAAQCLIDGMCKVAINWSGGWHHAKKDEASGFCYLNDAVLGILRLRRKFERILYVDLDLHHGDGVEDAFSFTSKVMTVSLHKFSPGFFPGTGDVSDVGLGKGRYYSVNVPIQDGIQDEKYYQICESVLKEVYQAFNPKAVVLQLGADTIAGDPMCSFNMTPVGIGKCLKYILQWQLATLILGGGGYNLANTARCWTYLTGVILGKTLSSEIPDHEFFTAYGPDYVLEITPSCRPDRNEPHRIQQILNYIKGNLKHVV
Description: HDAC activity was measured using a continuous trypsin-coupled assay that has been described in detail previously (US 20070281934; Schultz et. al., Biochemistry, 43 (34), 11083-11091, 2004; Kim et al. (2006), Methods Mol. Biol., 325:273-283). For inhibitor characterization, measurements were performed in a reaction volume of 100 μL using 96-well assay plates in a fluorescence plate reader. For each isozyme, the HDAC protein in reaction buffer (50 mM HEPES, 100 mM KCl, 0.001% Tween-20, 5% DMSO, pH 7.4, supplemented with bovine serum albumin at concentrations of 0-0.05%, was mixed with inhibitor at various concentrations and allowed to incubate for 15 minutes. Trypsin was added to a final concentration of 50 nM, and acetyl-Gly-Ala-(N-acetyl-Lys)-AMC was added to a final concentration of 25-100 μM to initiate the reaction. After a 30 minute lag time, the fluorescence was measured over a 30 minute time frame using an excitation wavelength of 355 nm and a detection wavelength of 460 nm. The increase in fluorescence with time was used as the measure of the reaction rate. Inhibition constants Ki(app) were obtained using the program BatchKi (Biokin, Pullman, Wash.).

AUC [1]: 5360 ng·h/mL
Cmax [1]: 828 ng/mL
IC50 [2]: < 1000 nM
SMILES: O=C(NO)c1ccc2ccn(CCOc3ccccc3)c2c1 [Compound 316, N-hydroxy-1-(2-phenoxyethyl)-1H-indole-6-carboxamide]
